Results on 25 molecules are retold here after ChEMBL document CHEMBL5230155, “Recent contributions of quinolines to antimalarial and anticancer drug discovery research” (Eur J Med Chem, 2021).

Each structure is given as a SMILES string. pEC50, pIC50, pKd: −log10 of the molar value.

Data set [1] deals with Plasmodium falciparum. The experiment in a line: Antimalarial activity against CQ-sensitive Plasmodium falciparum 3D7. The data set is classed as functional, organism-based.
The nature of data set [2]: Cytotoxicity against african green monkey Vero cells. The data set is classed as toxicity, cell-based. Particulars: African green monkey (Chlorocebus sabaeus).
In data set [3] the test system is Plasmodium falciparum. The experiment in a line: Antimalarial activity against Plasmodium falciparum 3D7. The data set is classed as functional, organism-based.
In data set [4] the test system is Plasmodium falciparum. The experiment in a line: Antimalarial activity against multidrug resistant Plasmodium falciparum Dd2. In kind it is functional, organism-based.
In data set [5] the test system is Plasmodium falciparum. The experiment in a line: Antimalarial activity against multidrug resistant Plasmodium falciparum K1. In kind it is functional, organism-based.
For data set [6], the target named is Lysine-specific demethylase 6B (Homo sapiens) (UniProt O15054). The experiment in a line: Inhibition of JMJD3 (unknown origin) at 25 uM relative to control.
Data set [7] is described as follows: Binding affinity to human nRNP.
Data set [8] relates to Plasmodium falciparum.
Description: Antimalarial activity against CQ-sensitive Plasmodium falciparum NF54
Data set [9] deals with RPMI-8226. The experiment in a line: Induction of apoptosis in human RPMI-8226 cells assessed as fold increase in caspase-3 level. The data set is classed as functional.
Data set [10] has as its system RPMI-8226. The experiment in a line: Induction of apoptosis in human RPMI-8226 cells assessed as fold increase in cytochrome c level. The data set is classed as functional.
In data set [11] the test system is HCT-116. The experiment in a line: Cytotoxicity against human HCT-116 cells. The data set is classed as functional, cell-based.
The test system of data set [12] is RPMI-8226. The experiment in a line: Cytotoxicity against human RPMI-8226 cells. In kind it is functional, cell-based.
In data set [13] the test system is HeLa. The experiment in a line: Antiproliferative activity against human HeLa cells. In kind it is functional, cell-based.
Data set [14] relates to DLD-1. The experiment in a line: Antiproliferative activity against human DLD-1 cells. The data set is classed as functional, cell-based.
Data set [15] concerns MCF7. The experiment in a line: Antiproliferative activity against human MCF7 cells. The data set is classed as functional, cell-based. Particulars: Homo sapiens, MCF7.
Data set [16] relates to A549. The experiment in a line: Cytotoxicity against human A549 cells. In kind it is functional, cell-based.
Data set [17] deals with T1, Tyrosine-protein kinase receptor UFO (Homo sapiens, UniProt P30530).
T1 sequence (P30530 whole entry): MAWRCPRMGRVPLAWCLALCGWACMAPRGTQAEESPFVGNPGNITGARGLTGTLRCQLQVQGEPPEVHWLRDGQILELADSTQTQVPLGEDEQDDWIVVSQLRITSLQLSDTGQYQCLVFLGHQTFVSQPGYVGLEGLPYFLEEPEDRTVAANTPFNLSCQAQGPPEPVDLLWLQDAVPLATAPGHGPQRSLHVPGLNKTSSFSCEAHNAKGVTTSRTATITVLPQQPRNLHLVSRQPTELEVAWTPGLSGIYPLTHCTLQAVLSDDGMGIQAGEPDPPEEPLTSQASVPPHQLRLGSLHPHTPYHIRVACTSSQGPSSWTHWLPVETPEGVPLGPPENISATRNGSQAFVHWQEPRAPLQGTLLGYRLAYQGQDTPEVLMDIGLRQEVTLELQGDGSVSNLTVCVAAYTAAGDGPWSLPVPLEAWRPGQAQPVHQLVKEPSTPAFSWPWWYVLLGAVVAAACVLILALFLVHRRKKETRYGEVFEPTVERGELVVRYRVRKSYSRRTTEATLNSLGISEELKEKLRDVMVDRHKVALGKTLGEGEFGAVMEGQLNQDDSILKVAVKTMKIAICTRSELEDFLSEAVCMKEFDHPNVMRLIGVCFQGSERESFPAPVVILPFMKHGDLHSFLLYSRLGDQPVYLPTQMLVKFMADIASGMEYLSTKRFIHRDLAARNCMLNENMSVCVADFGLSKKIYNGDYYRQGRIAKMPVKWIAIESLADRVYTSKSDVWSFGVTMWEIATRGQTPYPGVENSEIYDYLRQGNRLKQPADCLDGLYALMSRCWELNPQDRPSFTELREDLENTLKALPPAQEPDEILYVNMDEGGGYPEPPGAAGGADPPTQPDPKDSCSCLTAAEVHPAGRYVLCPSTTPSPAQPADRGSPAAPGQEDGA
The experiment in a line: Inhibition of AXL (unknown origin).

Sequence of Lysine-specific demethylase 6B (Homo sapiens) (O15054 whole entry): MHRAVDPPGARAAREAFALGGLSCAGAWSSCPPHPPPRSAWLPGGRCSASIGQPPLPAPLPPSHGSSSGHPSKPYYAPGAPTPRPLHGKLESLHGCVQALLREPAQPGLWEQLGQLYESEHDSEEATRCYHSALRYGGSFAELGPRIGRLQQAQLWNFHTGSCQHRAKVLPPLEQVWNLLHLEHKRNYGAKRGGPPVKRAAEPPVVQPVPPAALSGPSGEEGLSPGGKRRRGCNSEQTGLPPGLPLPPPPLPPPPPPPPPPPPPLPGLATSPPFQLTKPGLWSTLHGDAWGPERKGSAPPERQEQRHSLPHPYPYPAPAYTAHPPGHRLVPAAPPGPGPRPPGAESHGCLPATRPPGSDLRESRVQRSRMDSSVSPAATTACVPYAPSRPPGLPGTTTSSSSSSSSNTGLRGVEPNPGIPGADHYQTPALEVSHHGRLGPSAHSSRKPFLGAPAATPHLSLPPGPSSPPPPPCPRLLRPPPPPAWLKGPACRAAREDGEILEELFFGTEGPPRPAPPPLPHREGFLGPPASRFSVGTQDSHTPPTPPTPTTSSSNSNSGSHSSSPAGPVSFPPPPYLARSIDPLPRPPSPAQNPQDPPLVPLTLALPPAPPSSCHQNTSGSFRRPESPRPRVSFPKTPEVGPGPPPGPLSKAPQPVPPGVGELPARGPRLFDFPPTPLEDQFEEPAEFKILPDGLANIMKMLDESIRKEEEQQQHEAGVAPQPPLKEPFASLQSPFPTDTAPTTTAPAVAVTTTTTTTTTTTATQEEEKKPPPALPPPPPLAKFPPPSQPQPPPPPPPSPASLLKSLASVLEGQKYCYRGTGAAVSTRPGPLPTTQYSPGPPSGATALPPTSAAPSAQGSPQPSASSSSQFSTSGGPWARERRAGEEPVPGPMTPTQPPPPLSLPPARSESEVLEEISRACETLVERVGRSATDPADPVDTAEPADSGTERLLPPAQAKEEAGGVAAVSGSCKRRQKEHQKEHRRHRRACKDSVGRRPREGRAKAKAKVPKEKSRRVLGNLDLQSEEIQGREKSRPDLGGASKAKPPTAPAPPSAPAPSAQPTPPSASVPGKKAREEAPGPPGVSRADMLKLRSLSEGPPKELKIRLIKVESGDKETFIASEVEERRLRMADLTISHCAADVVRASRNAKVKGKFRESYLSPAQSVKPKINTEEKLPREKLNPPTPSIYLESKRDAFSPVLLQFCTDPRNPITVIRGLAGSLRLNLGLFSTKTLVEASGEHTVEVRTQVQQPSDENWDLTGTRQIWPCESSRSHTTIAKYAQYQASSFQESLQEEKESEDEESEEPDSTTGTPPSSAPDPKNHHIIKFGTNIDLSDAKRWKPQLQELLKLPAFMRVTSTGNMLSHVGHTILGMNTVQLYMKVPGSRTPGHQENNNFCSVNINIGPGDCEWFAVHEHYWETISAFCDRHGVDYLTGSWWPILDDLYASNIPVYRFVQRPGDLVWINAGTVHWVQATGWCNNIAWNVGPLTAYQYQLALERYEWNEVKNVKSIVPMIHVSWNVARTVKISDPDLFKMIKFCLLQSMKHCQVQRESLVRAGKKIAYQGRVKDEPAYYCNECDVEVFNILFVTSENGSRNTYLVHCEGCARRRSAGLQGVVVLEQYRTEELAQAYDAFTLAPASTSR

In general, pIC50 refers to −log10 of the IC50, conventionally taken in molar units. On to `O=C(Cn1cc(-c2ccccc2)nn1)NCCCNc1ccnc2cc(Cl)ccc12`, for which the pIC50 is 7.41 in data set [1] and below 5.30 in [2].

What is called pEC50 is −log10 of the EC50, conventionally taken in molar units. For the molecule `C[C@@H]1CC[C@H]2[C@@H](C)C(=O)O[C@@H]3O[C@@]4(C)CC[C@@H]1[C@]32OO4` [ARTEMISININ], the negative logarithm of the EC50 (pEC50) in [3], in [4] and in [5] was 8.27 in each case.

Broadly, the inhibition is the relative decrease from the control value, in per cent. `COc1ccc(F)cc1-c1cnc2c(C(=O)O)ccc(C(=O)O)c2c1` had an inhibition in data set [6] of 0%.

As usually defined, the pKd is the negative decadic logarithm of the Kd, by convention in mol/L. As for `COc1ccc(C(=O)/C=C/c2cc(N3CCOCC3)c3ccccc3n2)cc1`, the negative-log Kd (pKd) in data set [7] is 5.34.

The molecule `O=C(/C=C/c1cc(N2CCOCC2)c2ccccc2n1)c1ccc(O)cc1` showed a negative logarithm of the Kd (pKd) in data set [7] of 5.34.

In [7], `COc1ccc(C(=O)/C=C/c2cc(N3CCOCC3)c3cc(OC)ccc3n2)cc1` gave a pKd of 5.34.

Consider `Clc1ccc2c(N3CC(CN4CCCCC4)N=N3)ccnc2c1` (centres undefined), for which, in data set [8], the pIC50 is 6.69.

With `O=C(/C=C/c1cc(N2CCOCC2)c2cc([N+](=O)[O-])ccc2n1)c1ccc(O)cc1`, the negative-log Kd (pKd) in [7] was 5.34.

On to `[O-]/[N+](=C\c1cc2ccccc2nc1SCc1ccccc1)c1ccccc1`, for which the “fold change (FC)” value in data set [9] is 12; in [10], 4. Also, the negative logarithm of the IC50 (pIC50) in data set [11] and in data set [12] was 6.35 in each case.

Regarding `C[C@@H]1CCC2[C@@H](C)[C@H](OC(=O)CCC(=O)NCCNc3ccnc4cc(Cl)ccc34)O[C@@H]3O[C@@]4(C)CC[C@@H]1[C@@]23OO4` (some centres undefined), the pEC50 in data set [3], in data set [4] and in data set [5] was 9.11 throughout.

`COc1nc2ccccc2cc1/C=[N+](\[O-])c1ccccc1`: the results for the “fold change (FC)” value in data set [9] and in [10] were 12 and 4, respectively. In addition, the negative-log IC50 (pIC50) in data set [11] and in data set [12] was 6.35 in each case.

In the case of `COc1ccc2nc(Cl)c(C3CC(c4ccc(C)cc4)=NN3c3nc(-c4ccc(C)cc4)cs3)cc2c1` (centres undefined), the negative-log IC50 (pIC50) in data set [13], in [14] and in data set [15] was 7.42 throughout.

In the case of `Cc1ccc2nc(SCc3ccccc3)c(/C=[N+](\[O-])c3ccccc3)cc2c1`, the “fold change (FC)” value in data set [9] turned out to be 12; in data set [10], 4. Also, the negative-log IC50 (pIC50) in [11] and in data set [12] was 6.35 in each case.

As to `C#CCCCN(CCNc1ccnc2cc(Cl)ccc12)C(=O)CCC(=O)O[C@@H]1O[C@@H]2O[C@@]3(C)CC[C@H]4[C@H](C)CCC([C@H]1C)[C@@]24OO3` (some centres undefined), the pEC50 in [3], in [4] and in data set [5] was 9.11 in each case.

With `C#CCCCC(C(=O)NCCOC(=O)CCC(=O)O[C@@H]1O[C@@H]2O[C@@]3(C)CC[C@H]4[C@H](C)CCC([C@H]1C)[C@@]24OO3)c1ccnc2cc(Cl)ccc12` (some centres undefined), the negative logarithm of the EC50 (pEC50) in [3], in data set [4] and in data set [5] was 9.11 throughout.

`COc1ccc2nc(O)c(/C=C/C(=O)c3ccc(C)cc3)cc2c1`: the pIC50 in data set [13], in [14] and in data set [15] was 7.42 throughout.

Molecule `Clc1ccc2c(N3CC(CN4CCCC4)N=N3)ccnc2c1` (centres undefined) had a pIC50 in data set [8] of 6.69.

In general, GI50 refers to the concentration at which growth is held to half of that of the control. With `CNS(=O)(=O)Nc1nccc(Cc2c(C)c3ccc(Oc4ncccn4)cc3oc2=O)c1F` [AVUTOMETINIB], in data set [16], halving of growth (GI50) required 3.23 µM.

Regarding `COc1ccc2nc(Cl)c(C3CC(c4ccc(C)cc4)=NN3c3nc(-c4ccc(Cl)cc4)cs3)cc2c1` (centres undefined), the pIC50 in data set [13], in [14] and in data set [15] was 7.42 throughout.

For the molecule `COc1cc(-c2cnc3c(C(=O)O)ccc(C(=O)O)c3c2)c(OC)nn1`, the inhibition in data set [6] is 0%.

For the molecule `COc1cc2c(Oc3ccc(NS(=O)(=O)c4c(F)cccc4F)cc3F)ccnc2cc1OCCCN1CCN(C)CC1`, the negative-log IC50 (pIC50) in data set [17] is 7.57.

As to `COc1ncc(-c2cnc3c(C(=O)O)ccc(C(=O)O)c3c2)c(OC)n1`, the inhibition in data set [6] was 90%.

`COc1cc2c(Oc3ccc(NS(=O)(=O)c4ccccc4OC(F)(F)F)cc3F)ccnc2cc1OCCCN1CCN(C)CC1` had a negative-log IC50 (pIC50) in [17] of 7.57.

On to `COc1cc2c(Oc3ccc(NS(=O)(=O)c4cc(F)ccc4F)cc3F)ccnc2cc1OCCCN1CCCC(C)C1` (centres undefined), for which, in data set [17], the negative-log IC50 (pIC50) is 7.68.

As to `O=C(O)c1ccc(-c2cnc3c(C(=O)O)ccc(C(=O)O)c3c2)s1`, the inhibition in data set [6] amounted to 0%.
